Laboratory results published in US9464106B2, “Oligonucleotides useful for detecting and analyzing nucleic acids of interest” (Exiqon A/S, priority 2002, dated 2016).
Marks after values point to notes of the source that are not given here. l = locked nucleic acid (LNA); [5mC] = 5-methylcytosine; d = 2'-deoxy (DNA)

What was measured:
[1] = test system: complementary single stranded DNA (3′-ctgNatcc); experiment: Melting temperatures of DNA and LNA 8-mers containing inosine, 2,6-diaminopurine or 2-aminopurine against complementary DNA; assay type: binding; conditions: for Tm of the duplex with 3′-ctgaatcc / Tm of the duplex with 3′-ctgcatcc / Tm of the duplex with 3′-ctggatcc / Tm of the duplex with 3′-ctgtatcc: duplex 2.5 μM, 0.1M NaCl, 10 mM Na-phosphate (pH 7.0), 1 mM EDTA
[2] = test system: yeast HSP78 (YDR258C) sequence; experiment: Duplex melting temperatures of HSP78 25-mer capture probes (UV spectrophotometer); conditions: 25-mer capture probe duplex with complementary target; design PM = perfectly matched, MM = single mismatch; DNA, LNA_T (T) or LNA_TC (TC) substituted

5′-GACGTAGG [Entry 10]
Tm of the duplex with 3′-ctgaatcc [1]: 32^b ° C. | Tm of the duplex with 3′-ctgcatcc [1]: 70.9 °C | Tm of the duplex with 3′-ctggatcc [1]: 41^b ° C. | Tm of the duplex with 3′-ctgtatcc [1]: 55.0 °C

5′-gacitagg [Entry 6, reference compound]
Tm of the duplex with 3′-ctgaatcc [1]: <10 °C | Tm of the duplex with 3′-ctgcatcc [1]: 20.9 °C | Tm of the duplex with 3′-ctggatcc [1]: <10 °C | Tm of the duplex with 3′-ctgtatcc [1]: <10 °C

(1R,3R,4R,7S)-7-(2-Cyanoethoxy(diisopropylamino)phosphinoxy)-1-(4,4′-dimethoxytrityloxymethyl)-3-(hyroxanthin-9-yl)-dioxabicyclo[2.2.1]heptane [compound 11]
stabilization of the complementary duplex on replacement of one internal LNA-A by LNA-D ([1]; entries 8 and 11): 6.2 °C

12788 (DNA GATGAACTCAGGTGGATAGGATCTT; sugars from the 5' end ddlddddlddddldddlddddldld, backbone not given here; further chemistry not fully specified) [compound 12788]
Average duplex melting temp. [2]: 71 °C

12795 (DNA CACTCTAACAGTTTCGCCGTTTCTA; sugars from the 5' end dddldlddddddlddddddllldld, backbone not given here; further chemistry not fully specified) [compound 12795]
Average duplex melting temp. [2]: 75.5 °C

12739 (DNA GCAATGGCCTCGACTTGGCCAACGA; sugars from the 5' end d10 l1 d2 l1 d11, [5mC] at 11, 14, backbone not given here) [compound 12739]
Average duplex melting temp. [2]: 73.1 °C

12805 (DNA GACAGCCTCAGTTAATTGGCCACCA; sugars from the 5' end ddlddldlddddlddlldddlddld, [5mC] at 3, 6, 21, 24, backbone not given here; further chemistry not fully specified) [compound 12805]
Average duplex melting temp. [2]: 82.5 °C

12820 (DNA TCAATGGCCTTGCACCATATAATTG; sugars from the 5' end llddlddldlldlddldldlddlld, [5mC] at 2, 8, 13, 16, backbone not given here; further chemistry not fully specified) [compound 12820]
Average duplex melting temp. [2]: 83.5 °C

12750 (DNA ATTGACCTCAAATCTTTCTTGGATA; sugars from the 5' end dllddlllldddddlldllldddld, [5mC] at 6, 7, 9, 18, backbone not given here) [compound 12750]
Average duplex melting temp. [2]: 72.2 °C

12683 (DNA TTGGAAACATCGCGGTGCGCTTTTT; DNA, backbone not given here) [compound 12683]
Average duplex melting temp. [2]: 61.5 °C

12724 (DNA TCAATGGCCTTGGACCATATAATTG; DNA at ACG, LNA at T, backbone not given here) [compound 12724]
Average duplex melting temp. [2]: 69.7 °C

12746 (DNA TTTTTCGGCCAATCGATCTTGAATT; sugars from the 5' end ldldllddlldddddddldldddld, [5mC] at 6, 9, 10, 18, backbone not given here) [compound 12746]
Average duplex melting temp. [2]: 71 °C

12751 (DNA CCCAACTTTGTGACGTTTAATAAAA; sugars from the 5' end llldddllddlddddlllddldddd, [5mC] at 1, 2, 3, backbone not given here) [compound 12751]
Average duplex melting temp. [2]: 67.6 °C

12699 (DNA CACTCTAACAGTATCGCCGTTTCTA; DNA, backbone not given here) [compound 12699]
Average duplex melting temp. [2]: 61.1 °C

12712 (DNA GACCTAAGAACAAAAAGCTGGCAAT; sugars from the 5' end d4 l1 d13 l1 d6, backbone not given here) [compound 12712]
Average duplex melting temp. [2]: 61.1 °C

12742 (DNA GTTGCCATGGAGATCAAAATCTGTC; sugars from the 5' end dlddlldlddddddlddddllddld, [5mC] at 5, 6, 15, 21, backbone not given here) [compound 12742]
Average duplex melting temp. [2]: 61.6 °C
